Results on five compounds are retold here after patent US9630977B2, “Cephalosporin derivatives and pharmaceutical compositions thereof” (Legochem Biosciences, Inc., priority 2011, dated 2017).

≈ marks a conversion by molar mass, not a printed value. Where only a bound is given, the exact number is not on record here.

Broadly, the MIC90 is an inhibitory concentration at the 90% level, which refers to growth in some studies and to a panel of isolates in others.

Assay in all cases: In vitro antibacterial activity test (broth microdilution)
Assay type in all cases: cell-based

One test deals with A. baumannii 46. The note with it: Acinetobacter baumannii, 46, A. baumannii 46. The procedure, abridged: (§1)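 Susceptibility of clinical bacterial isolates is measured by CLSI broth microdilution. Final drug concentrations range 0.0626–128 ug/mL in 2.5% (V/V) DMSO; MIC90 recorded as lowest concentration blocking visible growth of 90% of organisms.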
For another test, the system named is A. baumannii 49. The note with it: Acinetobacter baumannii, 49, A. baumannii 49. The procedure, abridged:
as §1

The subject of another test is A. baumannii 52. The note with it: Acinetobacter baumannii, 52. The procedure, abridged: as §1
Test [1] deals with A. calcoaceticus ATCC15473. The note with it: Acinetobacter calcoaceticus, ATCC15473, A. calcoaceticus ATCC15473. The procedure, abridged: as §1
In a further test the test system is E. cloacae β19. The note with it: Enterobacter cloacae. The procedure, abridged: as §1
In another test the test system is E. coli AG100. The note with it: Escherichia coli, AG100. The procedure, abridged: as §1
The next test relates to E. coli β4. The note with it: Escherichia coli. The procedure, abridged:
as §1

The next test deals with K. pneumoniae 2011E. The note with it: Klebsiella pneumoniae, 2011E. The procedure, abridged: as §1
A further test relates to K. pneumoniae β10. The note with it: Klebsiella pneumoniae. The procedure, abridged: as §1
The next test deals with K. pneumoniae β11. The note with it: Klebsiella pneumoniae. The procedure, abridged: as §1
Another test relates to K. pneumoniae β13. The note with it: Klebsiella pneumoniae. The procedure, abridged:
as §1

The test system of another test is K. pneumoniae β14. The note with it: Klebsiella pneumoniae. The procedure, abridged:
as §1

The test system of the next test is K. pneumoniae β9. The note with it: Klebsiella pneumoniae. The procedure, abridged: as §1
A further test deals with M. catarrhalis 2524. The note with it: Moraxella catarrhalis, 2524. The procedure, abridged: as §1
A further test deals with P. aeruginosa 1912E. The note with it: Pseudomonas aeruginosa, 1912E. The procedure, abridged:
as §1

Another test relates to P. aeruginosa 37. The note with it: Pseudomonas aeruginosa, 37, P. aeruginosa 37. The procedure, abridged: as §1
Another test relates to P. aeruginosa 40. The note with it: Pseudomonas aeruginosa, 40. The procedure, abridged:
as §1

A further test deals with P. aeruginosa 43. The note with it: Pseudomonas aeruginosa, 43. The procedure, abridged: as §1
The test system of another test is P. aeruginosa 6065Y. The note with it: Pseudomonas aeruginosa, 6065Y. The procedure, abridged: as §1

Regarding `CC(C)(O/N=C(\C(=O)N[C@@H]1C(=O)N2C(C(=O)[O-])=C(/C=C/C[n+]3cnc(N)c(NCCN)c3)CSC12)c1nsc(N)n1)C(=O)O` (some centres unmarked) [Compound 55], the MIC90 is 0.5 µg/mL (≈ 0.772 µM) with A. baumannii 46; 64 µg/mL (≈ 98.8 µM) with A. baumannii 49; 64 µg/mL (≈ 98.8 µM) in the test on A. baumannii 52; 0.125 µg/mL (≈ 0.193 µM) in [1]; 8 µg/mL (≈ 12.4 µM) against E. cloacae β19; below 0.0625 µg/mL against E. coli AG100. The MIC90 in the test with E. coli β4 is below 0.0625 µg/mL; against K. pneumoniae 2011E it was below 0.0625 µg/mL; with K. pneumoniae β10, 0.125 µg/mL (≈ 0.193 µM); against K. pneumoniae β11 it was 128 µg/mL (≈ 198 µM); in the test with K. pneumoniae β13, 0.25 µg/mL (≈ 0.386 µM); against K. pneumoniae β14, 0.5 µg/mL (≈ 0.772 µM). The MIC90 is 2 µg/mL (≈ 3.09 µM) with K. pneumoniae β9; below 0.0625 µg/mL in the test on M. catarrhalis 2524; 1 µg/mL (≈ 1.54 µM) against P. aeruginosa 1912E; 4 µg/mL (≈ 6.18 µM) with P. aeruginosa 37; 1 µg/mL (≈ 1.54 µM) against P. aeruginosa 40; above 128 µg/mL against P. aeruginosa 43. The compound further showed an MIC90 in the test on P. aeruginosa 6065Y of 8 µg/mL (≈ 12.4 µM).
Regarding `CC(C)(O/N=C(\C(=O)N[C@@H]1C(=O)N2C(C(=O)[O-])=C(/C=C/C[n+]3cnc(N)c(NCCCN)c3)CSC12)c1nsc(N)n1)C(=O)O` (some centres unmarked) [Compound 56], the MIC90 against A. baumannii 46 was 4 µg/mL (≈ 6.04 µM); against A. baumannii 49 it was 32 µg/mL (≈ 48.4 µM); in the test on A. baumannii 52, 16 µg/mL (≈ 24.2 µM); in test [1], 1 µg/mL (≈ 1.51 µM); in the test on E. cloacae β19 it was 4 µg/mL (≈ 6.04 µM); against E. coli AG100, 0.5 µg/mL (≈ 0.756 µM). Further, the MIC90 amounted to 1 µg/mL (≈ 1.51 µM) against E. coli β4; 2 µg/mL (≈ 3.02 µM) in the test on K. pneumoniae 2011E; 1 µg/mL (≈ 1.51 µM) in the test with K. pneumoniae β10; 2 µg/mL (≈ 3.02 µM) against K. pneumoniae β11; 1 µg/mL (≈ 1.51 µM) against K. pneumoniae β13; 2 µg/mL (≈ 3.02 µM) against K. pneumoniae β14. Further, the MIC90 against K. pneumoniae β9 is 1 µg/mL (≈ 1.51 µM); in the test on M. catarrhalis 2524, below 0.0625 µg/mL; against P. aeruginosa 1912E it was 2 µg/mL (≈ 3.02 µM); in the test on P. aeruginosa 37, 8 µg/mL (≈ 12.1 µM); in the test with P. aeruginosa 40 it was 8 µg/mL (≈ 12.1 µM); in the test on P. aeruginosa 43, 64 µg/mL (≈ 96.7 µM). Besides, in the test on P. aeruginosa 6065Y, the MIC90 was 16 µg/mL (≈ 24.2 µM).
Take `CC(C)(O/N=C(\C(=O)N[C@@H]1C(=O)N2C(C(=O)[O-])=C(/C=C/C[n+]3cnc(N)c(NCCCN)c3)CSC12)c1nc(N)sc1Cl)C(=O)O` (some centres unmarked) [Compound 57]: the MIC90 is 1 µg/mL (≈ 1.44 µM) in the test on A. baumannii 46; 64 µg/mL (≈ 92.1 µM) against A. baumannii 49; 64 µg/mL (≈ 92.1 µM) in the test with A. baumannii 52; 0.5 µg/mL (≈ 0.719 µM) in test [1]; 8 µg/mL (≈ 11.5 µM) in the test with E. cloacae β19; 0.125 µg/mL (≈ 0.18 µM) against E. coli AG100. In addition, the MIC90 came to 0.125 µg/mL (≈ 0.18 µM) against E. coli β4; 0.25 µg/mL (≈ 0.36 µM) against K. pneumoniae 2011E; 0.25 µg/mL (≈ 0.36 µM) in the test on K. pneumoniae β10; 128 µg/mL (≈ 184 µM) against K. pneumoniae β11; 0.5 µg/mL (≈ 0.719 µM) against K. pneumoniae β13; 1 µg/mL (≈ 1.44 µM) against K. pneumoniae β14. Moreover, the MIC90 is 1 µg/mL (≈ 1.44 µM) in the test with K. pneumoniae β9; below 0.0625 µg/mL in the test on M. catarrhalis 2524; 0.5 µg/mL (≈ 0.719 µM) against P. aeruginosa 1912E; 8 µg/mL (≈ 11.5 µM) against P. aeruginosa 37; 4 µg/mL (≈ 5.75 µM) in the test on P. aeruginosa 40; above 128 µg/mL against P. aeruginosa 43. Also, in the test on P. aeruginosa 6065Y, the MIC90 turned out to be 16 µg/mL (≈ 23 µM).
For the compound `CC(C)(O/N=C(\C(=O)N[C@@H]1C(=O)N2C(C(=O)[O-])=C(/C=C/C[n+]3cnc(N)c(NCCCCN)c3)CSC12)c1nc(N)sc1Cl)C(=O)O` (some centres unmarked) [Compound 58], the MIC90 against A. baumannii 46 was 32 µg/mL (≈ 45.1 µM); with A. baumannii 49 it was 32 µg/mL (≈ 45.1 µM); against A. baumannii 52 it was 64 µg/mL (≈ 90.2 µM); in test [1], 4 µg/mL (≈ 5.64 µM); with E. cloacae β19, 8 µg/mL (≈ 11.3 µM); in the test with E. coli AG100 it was 0.5 µg/mL (≈ 0.705 µM). The MIC90 in the test on E. coli β4 was 2 µg/mL (≈ 2.82 µM); against K. pneumoniae 2011E, 2 µg/mL (≈ 2.82 µM); against K. pneumoniae β10, 2 µg/mL (≈ 2.82 µM); against K. pneumoniae β11, 8 µg/mL (≈ 11.3 µM); against K. pneumoniae β13, 4 µg/mL (≈ 5.64 µM); in the test with K. pneumoniae β14, 4 µg/mL (≈ 5.64 µM). Moreover, the MIC90 in the test with K. pneumoniae β9 is 8 µg/mL (≈ 11.3 µM); against M. catarrhalis 2524 it was below 0.0625 µg/mL; with P. aeruginosa 1912E it was 8 µg/mL (≈ 11.3 µM); with P. aeruginosa 37 it was 32 µg/mL (≈ 45.1 µM); in the test on P. aeruginosa 40 it was 16 µg/mL (≈ 22.6 µM); against P. aeruginosa 43, above 128 µg/mL. The compound also gave an MIC90 in the test with P. aeruginosa 6065Y of 32 µg/mL (≈ 45.1 µM).
On to `CC(C)(O/N=C(\C(=O)N[C@@H]1C(=O)N2C(C(=O)[O-])=C(/C=C/C[n+]3cnc(N)c(NC(=O)CCN)c3)CSC12)c1csc(N)n1)C(=O)O` (some centres unmarked) [Compound 60], for which the MIC90 in the test with A. baumannii 46 was 8 µg/mL (≈ 11.9 µM); against A. baumannii 49, above 128 µg/mL; against A. baumannii 52, 128 µg/mL (≈ 190 µM); in test [1] it was 1 µg/mL (≈ 1.48 µM); in the test with E. cloacae β19, 0.5 µg/mL (≈ 0.741 µM); in the test on E. coli AG100, 0.125 µg/mL (≈ 0.185 µM). Also, the MIC90 against E. coli β4 was 0.25 µg/mL (≈ 0.371 µM); with K. pneumoniae 2011E, 0.25 µg/mL (≈ 0.371 µM); against K. pneumoniae β10, 0.5 µg/mL (≈ 0.741 µM); with K. pneumoniae β11, 64 µg/mL (≈ 94.9 µM); against K. pneumoniae β13, 0.5 µg/mL (≈ 0.741 µM); against K. pneumoniae β14 it was 0.5 µg/mL (≈ 0.741 µM). Besides, the MIC90 is 1 µg/mL (≈ 1.48 µM) in the test with K. pneumoniae β9; below 0.0625 µg/mL against M. catarrhalis 2524; 2 µg/mL (≈ 2.96 µM) with P. aeruginosa 1912E; 32 µg/mL (≈ 47.4 µM) against P. aeruginosa 37; 8 µg/mL (≈ 11.9 µM) against P. aeruginosa 40; 64 µg/mL (≈ 94.9 µM) with P. aeruginosa 43. For the same compound, the MIC90 with P. aeruginosa 6065Y is 16 µg/mL (≈ 23.7 µM).
